Source: US20060141027A1, “Sublingual administration of non-steroidal anti-inflammatory pharmacological substances” (priority 2003, published 2006)

Experiment: experimentation on patients: sublingual versus traditional oral administration of FANS
Format: in vivo
Details: sublingual administration compared with oral formulation of the same agent
Description: In the performed experimentation, the used sublingual preparations consisted of tablets which can be separated in two parts.

| SMILES | therapeutic dose necessary for obtaining the desired anti-inflammatory effect |
| --- | --- |
| CC(=O)Nc1ccc(O)cc1 [paracetamol] | reduction of the therapeutic dosage |
| CC(C(=O)O)c1cccc(C(=O)c2ccccc2)c1 (centres unmarked) [ketoprofen] | reduction of the therapeutic dosage |
| O=C(O)Cc1ccccc1Nc1c(Cl)cccc1Cl [diclofenac] | reduction of the therapeutic dosage |
| CC(C)Cc1ccc(C(C)C(=O)O)cc1 (centres unmarked) [ibuprofen] | reduction of the therapeutic dosage |
| CS(=O)(=O)Nc1ccc([N+](=O)[O-])cc1Oc1ccccc1 [nimesulid, nimesulide] | reduction of the therapeutic dosage |
